Here are results for 10 molecules from ChEMBL document CHEMBL1201862, “PubChem BioAssay data set” (2004).

Test systems include 786-0; A498; COLO 205; HCC 2998; HCT-116; HCT-15; HOP-92; K562; KM12; LOX IMVI; MCF7; Malme-3M; OVCAR-3; RPMI-8226; SF-295; SK-MEL-5; SK-OV-3; SNB-75; TK-10; U-251.
Common to all, as to test: NCI tumour cell line growth inhibition, 48 h

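Five compound concentrations were applied to cells in 96-well plates for 48 hours; endpoints were derived by simple linear interpolation of the resulting dose-response curve. GI50 is the concentration that inhibits growth by half.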 Active and inactive are the calls of the source. Rule as the data show it: active = GI50 up to about 1.1 µM and inactive = higher. Bounds are passed on as bounds.

On to `COc1cc(C2S/C(=C/c3ccccc3)C(=O)N2c2cc(Cl)c(Cl)cc2Cl)cc(OC)c1OC` (configuration not stated), for which the GI50 was 38.3 µM (inactive) with 786-0; 44.8 µM (inactive) with A498; 53.6 µM (inactive) in the test on COLO 205; 39.1 µM (inactive) with HCC 2998; 23.5 µM (inactive) with HCT-116; 28.7 µM with HCT-15. The GI50 in the test on HOP-92 is 13.7 µM (inactive); in the test with K562, 29 µM (inactive); with KM12, 25.7 µM (inactive); in the test on LOX IMVI, 24.2 µM (inactive); in the test with MCF7, 30.4 µM (inactive); with Malme-3M, 26.2 µM (inactive). Besides, the GI50 with OVCAR-3 is 24.2 µM (inactive); in the test with RPMI-8226 it was 24.6 µM (inactive); in the test on SF-295, 49.3 µM (inactive); in the test on SK-MEL-5, 22.5 µM (inactive); in the test with SK-OV-3, > 70.5 µM (inactive); in the test on SNB-75, 2.56 µM (inactive). Besides, the GI50 in the test on TK-10 was > 69.3 µM (inactive); with U-251 it was 44.4 µM (inactive).

For the molecule `CCN(CC)Cc1cc(/N=N\c2c(O)ccc3c(/N=N\c4ccc(O)c(CN(CC)CC)c4)c(O)ccc23)ccc1O`, the GI50 in the test with 786-0 is 1.87 µM (inactive); in the test on A498, 13.3 µM (inactive); in the test on COLO 205 it was 1.61 µM (inactive); in the test on HCC 2998, 1.71 µM (inactive); in the test on HCT-116, 1.94 µM (inactive); with HCT-15, 1.68 µM. For the same molecule, the GI50 in the test on HOP-92 was 4.58 µM (inactive); in the test on K562 it was 2.21 µM (inactive); in the test on KM12, 1.18 µM (inactive); with LOX IMVI, 1.59 µM (inactive); in the test with MCF7 it was 2.39 µM (inactive); in the test with Malme-3M, 4.5 µM (inactive). Further, the GI50 is 3.73 µM (inactive) in the test with OVCAR-3; 1.68 µM (inactive) in the test with RPMI-8226; 5.01 µM (inactive) in the test with SF-295; 2.47 µM (inactive) in the test on SK-MEL-5; 2.77 µM (inactive) in the test on SK-OV-3; 6.28 µM (inactive) with SNB-75. The GI50 with TK-10 is 6.89 µM (inactive); with U-251, 3.48 µM (inactive).

In the case of `C[N+](C)(C)CC1CCCc2ccccc2C1=O` (configuration not stated), the GI50 in the test with 786-0 was 2.44 µM (inactive); in the test on A498, 14 µM (inactive); in the test on COLO 205, 22 µM (inactive); in the test with HCC 2998, 20.6 µM (inactive); in the test with HCT-116, 1.87 µM (inactive); in the test with HCT-15, 5.98 µM. The GI50 was 13.2 µM (inactive) in the test with HOP-92; 2.49 µM (inactive) in the test on K562; 9.86 µM (inactive) with KM12; 2.04 µM (inactive) with MCF7; 5.79 µM (inactive) in the test on Malme-3M; 7.26 µM (inactive) in the test on OVCAR-3. The GI50 with RPMI-8226 is 0.265 µM (active); in the test on SF-295, > 40.5 µM (inactive); in the test on SK-MEL-5 it was 6.59 µM (inactive); in the test on SK-OV-3 it was 20.3 µM (inactive); with SNB-75 it was 19.7 µM (inactive); with TK-10 it was 21 µM (inactive). The GI50 with U-251 was 6.71 µM (inactive).

In the case of `O=C1CSC(c2ccccc2O)N1c1ccc(-n2c(-c3ccccc3)nc3ccccc3c2=O)cc1` (configuration not stated), the GI50 is 20.1 µM (inactive) in the test on 786-0; 29.7 µM (inactive) with A498; 30.3 µM (inactive) in the test with COLO 205; 28.5 µM (inactive) in the test on HCC 2998; 11 µM (inactive) in the test on HCT-116; 6.84 µM with HCT-15. Besides, the GI50 in the test on HOP-92 was 20.8 µM (inactive); in the test on K562, 15.2 µM (inactive); in the test with KM12, 20.9 µM (inactive); with LOX IMVI, 13.1 µM (inactive); in the test with MCF7, 28.1 µM (inactive); with Malme-3M, 22.2 µM (inactive). The GI50 with OVCAR-3 is 14.6 µM (inactive); with RPMI-8226, 21.1 µM (inactive); in the test on SF-295 it was 16.4 µM (inactive); in the test on SK-MEL-5 it was 16.1 µM (inactive); in the test on SK-OV-3, 23.7 µM (inactive); in the test on SNB-75, 54.1 µM (inactive). The GI50 was 48.2 µM (inactive) with TK-10 and 5.7 µM (inactive) in the test with U-251.

As for `O=C(CSc1nc2ccccc2c(=O)n1-c1ccccc1)N/N=C1\C(=O)Nc2ccc(Br)cc21`, the GI50 in the test on 786-0 was 1.95 µM (inactive); in the test on A498 it was 6.21 µM (inactive); with COLO 205, 3.74 µM (inactive); in the test with HCC 2998, 8.17 µM (inactive); with HCT-116, 2.26 µM (inactive); in the test on HCT-15 it was 4.39 µM. Also, the GI50 with HOP-92 is 2.7 µM (inactive); with K562 it was 3.2 µM (inactive); in the test with KM12, 2.44 µM (inactive); with LOX IMVI, 3.33 µM (inactive); with MCF7, 3.49 µM (inactive); in the test on Malme-3M, 2.26 µM (inactive). In addition, the GI50 in the test with OVCAR-3 was 3.1 µM (inactive); with RPMI-8226, 2.72 µM (inactive); in the test on SF-295, 2.81 µM (inactive); in the test with SK-MEL-5, 2.58 µM (inactive); in the test on SK-OV-3 it was 3.41 µM (inactive); in the test with SNB-75, 3.01 µM (inactive). Besides, the GI50 in the test on TK-10 is 2.39 µM (inactive); in the test with U-251 it was 1.82 µM (inactive).

`Cc1cccc(CP(Cc2cccc(C)c2)CC2(Cp3c4ccccc4c4ccccc43)COC2)c1`: the GI50 with 786-0 was 1.53 µM (inactive); with A498, 7.41 µM (inactive); in the test with COLO 205, 0.249 µM (active); in the test on HCC 2998, 12.3 µM (inactive); in the test with HCT-116, 0.252 µM (active); with HCT-15, 31 µM. For the same molecule, the GI50 in the test on HOP-92 was 1.99 µM (inactive); with K562, 1.33 µM (inactive); with KM12, 2.51 µM (inactive); with LOX IMVI it was 1.42 µM (inactive); in the test with MCF7, 3.15 µM (inactive); in the test with Malme-3M, 5.13 µM (inactive). Also, the GI50 with OVCAR-3 was 8.43 µM (inactive); with RPMI-8226, 1.02 µM (active); in the test with SF-295 it was 2.18 µM (inactive); with SK-MEL-5 it was 2.55 µM (inactive); in the test with SK-OV-3 it was > 100 µM (inactive); with SNB-75, 0.501 µM (active). Besides, the GI50 in the test on U-251 is 0.47 µM (active).

On to `Cn1cnc(C(N)=[Se])c1N`, for which the GI50 in the test on 786-0 was 2.13 µM (inactive); with A498, 16.4 µM (inactive); in the test on COLO 205 it was 2.09 µM (inactive); with HCC 2998, 15.4 µM (inactive); in the test on HCT-116, 3.69 µM (inactive); in the test on HCT-15 it was 3.63 µM. Besides, the GI50 in the test on HOP-92 was 6.56 µM (inactive); in the test on KM12, 2.33 µM (inactive); with LOX IMVI, 3.26 µM (inactive); in the test with MCF7, 3.15 µM (inactive); in the test with Malme-3M it was 2.69 µM (inactive); in the test on OVCAR-3, 2.03 µM (inactive). Besides, the GI50 is 2.94 µM (inactive) in the test on RPMI-8226; 0.244 µM (active) in the test on SF-295; 3.21 µM (inactive) with SK-MEL-5; 1.25 µM (inactive) in the test on SK-OV-3; 2.2 µM (inactive) in the test with SNB-75; 2.64 µM (inactive) with TK-10. Further, the GI50 in the test on U-251 is 1.35 µM (inactive).

For the molecule `NC(=O)c1cc2ccccc2o/c1=N/c1ccccc1`, the GI50 in the test on 786-0 is > 100 µM (inactive); with A498 it was > 100 µM (inactive); in the test on COLO 205, > 100 µM (inactive); in the test on HCC 2998 it was > 100 µM (inactive); in the test with HCT-116, > 100 µM (inactive); with HCT-15, over 100 µM. The GI50 with HOP-92, in the test on K562, in the test on KM12, in the test on LOX IMVI, in the test with MCF7 and in the test on Malme-3M was > 100 µM (inactive) each time. For the same molecule, the GI50 with OVCAR-3, in the test with RPMI-8226, with SK-MEL-5, in the test with SK-OV-3, in the test on SNB-75 and in the test with U-251 was > 100 µM (inactive) each time.

Regarding `Nc1ccc2c(c1)Nc1c3ccccc3nc3cccc-2c13`, the GI50 with 786-0 is 1.21 µM (inactive); with A498, 1.79 µM (inactive); in the test on COLO 205, 1.34 µM (inactive); in the test on HCC 2998, 1.2 µM (inactive); in the test with HCT-116, 1.48 µM (inactive); with HOP-92 it was 1.6 µM (inactive). In addition, the GI50 is 0.416 µM (active) in the test with K562; 1.32 µM (inactive) with KM12; 1.3 µM (inactive) in the test on LOX IMVI; 0.794 µM (active) in the test on MCF7; 1.85 µM (inactive) in the test on Malme-3M; 1.72 µM (inactive) in the test with OVCAR-3. In addition, the GI50 was 1.84 µM (inactive) in the test on RPMI-8226; 1.29 µM (inactive) in the test on SF-295; 1.75 µM (inactive) in the test with SK-MEL-5; 1.61 µM (inactive) in the test on SK-OV-3; 1.4 µM (inactive) in the test on SNB-75; 2.13 µM (inactive) in the test on TK-10. Also, the GI50 in the test on U-251 is 1.53 µM (inactive).

Consider `O[C@H]1[C@H](O)[C@@H](O)[C@H](O)[C@@H](O)[C@H]1O` [INOSITOL], for which the GI50 with 786-0 was > 1000 µM (inactive); in the test on A498, > 1000 µM (inactive); in the test on COLO 205, > 1000 µM (inactive); in the test on HCC 2998 it was > 1000 µM (inactive); with HCT-116, > 1000 µM (inactive); in the test with HCT-15 it was over 1000 µM. The GI50 in the test with HOP-92, in the test with K562, in the test on LOX IMVI, in the test on MCF7, in the test with Malme-3M and with OVCAR-3 was > 1000 µM (inactive) each time. Further, the GI50 with RPMI-8226 was > 1000 µM (inactive); in the test on SK-MEL-5, > 1000 µM (inactive); with SK-OV-3 it was > 1000 µM (inactive); in the test with SNB-75, 0.1 µM (active); in the test with TK-10, > 1000 µM (inactive); in the test on U-251, > 1000 µM (inactive).
